Experimental data as given in US7834148B2, “Protein phosphorylation imaging systems, methods of making phosphorylation imaging systems, and methods of use thereof” (Stanford University, priority 2006, dated 2010).

System: phosphorylated Akt(S^473)
Assay: Phosphorylation-specific western blotting of Akt in cell lysates
Assay type: cell-based, human
Conditions: LY 24 hours or perifosine 6 hours
Description: To validate AS1T as a genetically-encoded reporter for indirect imaging of endogenous Akt kinase activity, confirmation needed to be made that inhibition of endogenous Akt phosphorylation/kinase activities by LY and perifosine corresponded to increase in complemented FL activities in 293T/AS1T cells, but not in 293T/AS1A cells. 293T/AS1T and 293T/AS1A cells were treated with perifosine (6 hours), LY (24 hours) and their respective carrier controls. Complemented FL activities were determined by bioluminescence imaging of intact cells while Akt phosphorylation status/kinase activities in cell lysates were determined by phosphorylation-specific western blotting and in vitro kinase assay using purified glycogen synthase kinase 3β (GSK-3β) as the substrate, respectively. In 293T/AS1T cells treated with LY or perifosine, complemented FL activity increased (FIGS. 8a and 8c), while the amount of phosphorylated Akt (FIGS. 8b and 8d, top panels) and phosphorylated GSk-3, (FIGS. 8b and 8d, bottom panel) decreased, relative to carrier control treated cells. […]
To determine the expression of total and phosphorylated Akt in 293T/AS1A and 293T/AS1T, cell lysates from the triplicate wells from the above FL assay were combined and the protein concentrations were re-determined. […]

CCCCCCCCCCCCCCCCCCOP(=O)([O-])OC1CC[N+](C)(C)CC1 [perifosine]
amount of phosphorylated Akt (293T/AS1A cells): decreased | amount of phosphorylated Akt (293T/AS1T cells, relative to carrier control): decreased
